Measured values published in PMC12003248, “ERCC6L2 mitigates replication stress and promotes centromere stability” (Cell Reports, 2023).

Key:
Format in all cases: cell-based, human
[1] = tested on: control and ERCC6L2^−/− U2OS cells; assay: Micronuclei formation; conditions: cells grown with damaging agents for 2 days; ERCC6L2^−/− vs control U2OS
Description: absence or presence of damaging agents for 2 days. CENPC and 53BP1 were used as centromeric and DSB markers, respec?vely. N(images) >140, N(cells)>50,000. (B) Quan?ﬁca?on of micronuclei subtypes in control and ERCC6L2-/- U2OS cells, as indicated. 53BP1 or γH2AX were used as DSB markers; CENP-C was used as a centromere marker; Telomeric repeat-binding factor 2-interac?ng protein 1 (RAP1) was used as a telomere marker. N(images)>400, N(cells)>30,000.

[2] = tested on: control and ERCC6L2^−/− U2OS cells; assay: Clonogenic survival assay; conditions: 11 days, 3 independent experiments, ERCC6L2^−/− vs control U2OS
Procedure: Cells were seeded in 6-well plates (approximately 700 cells/well) and either left untreated or treated with the indicated concentrations of genotoxic agents. Cells were then grown for 11 days to allow colony formation. Colonies were stained with 5 mg/ml crystal violet (Sigma-Aldrich) solution in 25% methanol for 30 min. Pictures were taken using a Nikon D3200 camera and images were analyzed using FIJI software. FIJI’s ‘Analyze Particles’ function was used to quantify numbers of colonies. Survival was calculated relative to untreated cells. Each experiment was performed in technical triplicates, and data shown represent combined data from at least three independent experiments.
Error bars represent standard errors from 3 independent experiments.

pKAP1 (KAP1 S824) = assay: pKAP1 levels; conditions: 50 µg/ml phleomycin for 12 h; vs control cells
Procedure: (§1) 0.8 ControlERCC6L2ControlERCC6L2
(§2) 0.4 28 kDa short exposure […]
(§3) Figure S12. DNA damage-induced changes in control and ERCC6L2 -/- cells. Related to Figure 6.
(§4) (A) Box and whisker plots measuring average pRPA intensi?es in control and ERCC6L2-/- cells. Cells were either untreated, or exposed to 50 µg /ml phleomycin for 12 h, before ﬁxa?on and staining. N(images)>180, N(cells)>28,000. (B) Representa?ve images of phleomycin treated cells used for quan?ﬁca?ons in A. Shown are expressions of indicated proteins, with zoomed images of cells in coloured frames.
(§5) (C) Analysis of pRPA levels by western blot. Treatments were as in A. (D) Box and whisker plots measuring average pKAP1 intensi?es in control and ERCC6L2-/- cells. Cells were either untreated, or exposed to 50 µg /ml phleomycin for 12 h, before ﬁxa?on and staining.
N(images)>180, N(cells)>28,000. (E) Representa?ve images of phleomycin treated cells used for quan?ﬁca?ons in D. Shown are expressions of indicated proteins, with zoomed images of cells in coloured frames. (F) Analysis of pKAP1 levels by western blot. Treatments were as in D. (G) Box and whisker plots measuring KAP1 foci in control and ERCC6L2-/- cells. Cells were either untreated, or exposed to 50 µg /ml phleomycin for 12 h, before ﬁxa?on and staining. N(images)>180, N(cells)>28,000. B, E, H: Scale bar: 10 µm. A, D, G: Sta?s?cs […]

CENP-B = CENP-B intensities by QIBC after genotoxic stress; conditions: 1 h, 5 h recovery, N(cells)>30,000
pRPA32 = assay: pRPA levels (ssDNA marker); conditions: 50 µg/ml phleomycin for 12 h; vs control cells
Procedure: For quantitative analysis of pRPA, RAD51, γH2AX, and EdU foci, non-overlapping images were acquired using a 20x objective lens. Image analysis was performed using CellProfiler.[98] For quantification of TRF1-and CENP-C-positive micronuclei, random non-overlapping images were acquired, and Z-stacks were further collected for each micronucleus to examine the presence of TRF1 and CENP-C foci. […]
as §1, §2, §3, §4, §5
N(images)>180, N(cells)>28,000. […]

phleomycin
micronuclei formation in ERCC6L2-deficient cells [1]: increased frequency of micronuclei formation | sensitivity of ERCC6L2-deficient cells [2]: increased sensitivity | pKAP1 levels in treated ERCC6L2^−/− cells (pKAP1 (KAP1 S824)): decreased levels of pKAP1 | CENP-B intensities after 25 µg/ml phleomycin (CENP-B): not aﬀected by DNA damage | pRPA levels in treated ERCC6L2^−/− cells (pRPA32): increased levels of pRPA
